Where a name gives a salt, the structure may show the parent alone.
Legend:
rat colonic microbiota = assay: Ex vivo stability of tofacitinib in rat cecal slurry (colonic microbiota); format: in vitro ADME; settings: 1 mg/mL in rat cecal slurry, anaerobic
Method: The cecum of healthy rats (male, n = 6) was obtained shortly following animal sacrifice and transferred to an anaerobic workstation (Electrotek 500TG workstation, Electrotek, West Yorkshire, UK) maintained at 37 °C and 70% relative humidity. The rats’ cecums were opened and fluid was collected using aseptic technique to preserve the fluid’s microbial composition. Next, the fluid was homogenised with basal media (ratio 1:4, composition as used by Hughes et al. [29] at 10,000 rpm and sieved through a mesh with 5 µm aperture.
Samples were taken at 0, 1, 2, 4, and 6 h and immediately quenched with ice-cold acetonitrile at a ratio of 1:3 to arrest microbial/enzyme activity. Quenched samples were then centrifuged (9600× g, 10 min, 4 °C) and the supernatant was collected for quantification of drug concentration using HPLC.
A mobile phase consisting of 0.1% phosphoric acid in water (A) and acetonitrile (B) was used via a gradient method, whereby %A: 95 and %B: 5 from 0.0–4.0 min; and %A: 80 and %B: 20 from 4.0–6.0 min. An Agilent Zorbax-Extend C18 column (50 × 4.6 mm, 1.8 μm) (Santa Clara, CA, USA) at 1.8 mL/min, with column temperature equilibrated at 40 ± 2 °C. […] Drug concentration was calculated by comparing the area under the curve (AUC) of the drug’s peak in samples to those produced with a calibration curve.

IL-6 [1] = assay: LPS-induced inflammation, ascending dose oral solution study: colonic tissue IL-6; format: in vivo, male Lewis rats; settings: 4 hours
Method: (§1) Male Lewis rats were fasted overnight before the day of experiment. Rats were chosen as an in vivo model in these experiments as they are commonly used for assessment of IBD investigatory treatments. […] To induce intestinal inflammation, rats were intraperitoneally injected with 1 mg/kg LPS at T1 h. Intraperitoneal injection of LPS is an accepted method for instigating inflammation in rats as pharmacodynamic endpoints. […] Controls used in this study were naïve rats (no induction of inflammation, placebo treatment (PBS)), treatment-free rats (LPS + vehicle (PBS)), and comparative treatment control rats (induction of inflammation, treatment with 1 mg/kg oral dexamethasone solution, formulated in PEG400/polysorbate 80 in deionized water (10/9/81). Rats not treated with LPS were instead injected with the same volume of PBS solution.

IL-6 [2] = assay: LPS-induced inflammation, ascending dose oral solution study: plasma IL-6; format: in vivo, male Lewis rats; settings: 1 mg/kg dexamethasone solution, 4 hours after administration
Method: as §1

IL-6 [3] = assay: LPS-induced inflammation, capsule studies: colonic tissue IL-6; format: in vivo, male Lewis rats; settings: 1 mg/kg dexamethasone oral; targeted vs untargeted comparison, 8 h analysis
IL-6 [4] = assay: LPS-induced inflammation, capsule studies: plasma IL-6; format: in vivo, male Lewis rats
Method: To induce intestinal inflammation, 1 mg/kg LPS was injected intraperitoneally into rats at T5 h, this timing was chosen based on the CT imaging results, to allow capsules to reach the intestines. Inflammation-free control rats were instead intraperitoneally injected with an equal volume of PBS. Controls used in this study were naïve rats (no induction of inflammation, vehicle treatment (PBS)), treatment-free rats (LPS + vehicle (PBS)), and comparative treatment control rats (induction of inflammation, treatment with 1 mg/kg oral dexamethasone solution, formulated in PEG400/polysorbate 80 in deionized water (10/9/81), at T4 h). Animal sacrifice occurred at T8 h (3 h after LPS administration). Terminal plasma and colonic tissue were subsequently excised, and levels of IL-6 quantified using the V-PLEX validated immunoassay kit.

[5] = 1 and 10 mg/kg tofacitinib solution

SMILES	time stable when delivered to the cecum/colon (rat colonic microbiota)	colonic IL-6 concentrations compared to the naïve rats (IL-6 [1]; [5])	colonic tissue IL-6 compared to 0.1 mg/kg tofacitinib (IL-6 [1]; [5])	IL-6 levels in plasma compared to the LPS + vehicle control (IL-6 [2])	IL-6 concentration in colonic tissue compared to the untreated control (IL-6 [3])	plasma IL-6 levels compared to the untreated control (IL-6 [4]; 1 mg/kg dexamethasone oral, targeted vs untargeted comparison, 8 h)	plasma IL-6 compared to the untreated control (IL-6 [4]; 1 mg/kg oral dexamethasone solution, dose response study)	colonic tissue IL-6 compared to the treatment-free control (IL-6 [1]; 1 mg/kg dexamethasone)
C[C@@H]1CCN(C(=O)CC#N)C[C@@H]1N(C)c1ncnc2[nH]ccc12 [tofacitinib, Tofacitinib citrate]	at least 6 h	no significant difference	significantly lower					
C[C@@H]1C[C@H]2[C@@H]3CCC4=CC(=O)C=C[C@]4(C)[C@@]3(F)[C@@H](O)C[C@]2(C)[C@@]1(O)C(=O)CO [dexamethasone]				significantly lower	did not significantly alter	significantly reduce	lowered	significantly lowered
